Results as given in PubChem BioAssay AID2305 (GlaxoSmithKline (GSK), 2010).
pIC50: −log10 of the molar value. Several values for one entry are separate records, joined by “and”; a condition that tells them apart may be missing. Equal values may be shown once.

system: P. falciparum 3D7 growth, pLDH absorbance; assay: blood-stage malaria parasite growth potency – strain 3D7, dose response (AID 2305)

Row | SMILES | pIC50
1 | CCOc1cccc(C(=O)Nc2ccc(-c3nc4ccccc4[nH]3)cc2)c1 | 6.00
2 | COc1ccc2[nH]c(C(=O)Nc3cccc(-c4ccc(CN(C)C)cc4)c3)cc2c1 | 6.04
3 | CCCCCCCCN1CCN(CCCCCCNc2c3ccccc3nc3ccccc23)CC1 | 6.80
4 | O=C(/C=C/c1ccc(Cl)c(Cl)c1)NCCCCCN1CCC(n2c(=O)[nH]c3ccccc32)CC1 | 6.06
5 | CCCC(C)Nc1nc(C)cc(N[C@@H](Cc2ccccc2)C(=O)NCCOc2ccccc2)n1 (stereo partly drawn) | 6.15
6 | CC(C)(C)c1ccc(OC(=O)c2ccc(NC(=O)N[C@@H](Cc3ccc(O)cc3)C(=O)NC3CCN(Cc4ccc(O)cc4)C3)cc2)cc1 (stereo partly drawn) | 6.09
7 | CC(C)NCc1ccc(OCc2cccc(COc3ccc(CNC(C)C)cc3I)c2)c(I)c1 | 7.05
8 | NC(N)=NN=Cc1c2ccc(Cl)cc2c(Cl)c2ccc(Cl)cc12 | 6.02
9 | O=C(CCCc1ccccc1)Nc1cccc(N2CCC(N3CCN(c4ccccc4O)CC3)CC2)c1 | 6.10
10 | O=S(=O)(NCCN1CCCC1)c1ccc(-c2cccc(CNCCc3cccs3)c2)s1 | 6.15
11 | O=C(Nc1nc2cc(S(=O)(=O)NCCc3ccc(F)cc3)ccc2n1CCCn1ccnc1)c1ccc(Cl)cc1 | 5.95
12 | FC(F)(F)c1ccc2nc(-c3ccc(-c4ccc(CNCCc5ccncc5)cc4)cc3)[nH]c2c1 | 6.89
13 | N#Cc1ccc(N2CCN(Cc3ccc(-c4ccc(-c5nc6ccc(C(F)(F)F)cc6[nH]5)s4)cc3)CC2)nc1 | 6.09
14 | Cc1cc(Cl)ccc1NC(=O)Nc1ccc2nccc(N3CCN(C)CC3)c2c1 | 6.41
15 | O=c1cc(NCCCNCc2cc(Br)cs2)[nH]c2ccccc12 | 5.97
16 | O=C(c1ccc(-c2ccc(-c3nc4ccccc4[nH]3)s2)cc1)N1CCCCC1CN1CCC(O)C1 (stereo not drawn) | 5.98
17 | c1ccc(-c2cc3cccc(-c4nc5ccncc5[nH]4)c3o2)cc1 | 6.96
18 | O=C(NCCCc1ccccc1)c1csc(C2CCCN(C(=O)c3ccc(O)c(-c4ccccc4)c3)C2)n1 (stereo not drawn) | 6.04
19 | CCC(NCc1ccc(-c2cncc(C(=O)NCC(C)C)c2)cc1)c1ccccc1 (stereo not drawn) | 6.03
20 | COc1ccc2nccc([C@@H](O)CN3CCC(NC(=O)/C=C/c4c[nH]c5c(C)cccc45)CC3)c2c1 | 6.89
21 | Nc1ncc(-c2ccc3nccc(-c4ccncc4)c3c2)cc1S(=O)(=O)N1CCCCC1 | 6.24
22 | O=[N+]([O-])c1cccc(-n2nc(NCc3ccc(Cl)cc3)nc2-c2ccc(F)c(C(F)(F)F)c2)c1 | 6.62
23 | CC(C)[C@H](NC(=O)c1ccc(O)c(-c2ccc(Cl)c(Cl)c2)c1)C(=O)NCCN(C)C | 5.98
24 | COc1cc(Nc2ncc3c(C)nc(-c4cccc(Nc5ccc(CN6CCS(=O)(=O)CC6)cc5)c4)n3n2)cc(OC)c1OC | 6.06

Row | SMILES | pIC50
25 | CC(=O)Nc1ccc(OCCCCN(Cc2ccccc2OC(F)(F)F)c2ccc(C(F)(F)F)c(C#N)c2)c(Cl)c1 | 6.28
26 | CS(=O)(=O)Nc1ccc2c(C3CCN(CCC4CCN(C(=O)/C=C/c5ccc(Cl)c(Cl)c5)CC4)CC3)c[nH]c2c1 | 6.22
27 | CCN(CC)CCCN1CCN(C(=O)c2cccc(-c3noc(C(F)(F)F)n3)c2)CC1 | 6.82
28 | FC(F)(F)c1ccc2nc(-c3ccc(-c4cccc(CNCCc5cccnc5)c4)s3)[nH]c2c1 | 6.77
29 | Cn1c(Nc2cc(C(C)(C)C)on2)nc2cc(Nc3ccnc(Nc4ccc(CS(C)(=O)=O)cc4)n3)ccc21 | 6.01
30 | Cc1c(CNCCCNc2cc(=O)c3ccccc3[nH]2)sc(C(F)F)c1Br | 6.06
31 | CN1CCCN(Cc2cccc(-c3cccc(NS(=O)(=O)c4cccc5cccnc45)c3)c2)CC1 | 6.12
32 | O=C(Nc1cc(F)cc(-c2cccnc2)c1)c1ccc2c(=O)n(Cc3ccccc3)cnc2c1 | 5.88
33 | Cn1nccc1C(=O)NCCNCc1ccc(-c2cccc(-c3nc4ccccc4[nH]3)c2)cc1 | 6.85
34 | COc1ccc2nccc([C@@H](O)CN3CCC(NCc4cc5oc(=O)n(C)c5cc4F)CC3)c2c1 | 6.18
35 | COc1cc(CCN=C(N)/C=C/c2ccc(Cl)cc2)ccc1Cl | 6.62
36 | c1cc(-c2ccc(CNC3CC3)cc2)cc(-c2nc3ccccc3[nH]2)c1 | 5.78
37 | COC(=O)c1ccc(C[C@@H](C)NC[C@H](O)c2cccc(C(F)(F)F)c2)cc1 | 6.10 and 6.12
38 | CCOC(=O)c1c[nH]c2c(sc3cc(OC)ccc32)c1=O | 6.41
39 | CCCn1c(SCC(=O)Nc2cc(Cl)ccc2Cl)n[nH]c1=O | 6.00
40 | CC[C@H](C)CNC(=O)c1ccc(-c2cccc(CN3CCC(N4CCCC4)CC3)c2)nc1 | 6.10
41 | COc1cc(NCCCNCc2cn(S(=O)(=O)c3ccccc3)c3ccccc23)nc2ccccc12 | 6.41
42 | Cc1ccccc1OCC(=O)Nc1ccc(-c2nc3cc4ccccc4cc3[nH]2)cc1 | 6.12
43 | CCC(C)c1ccc(NC(=O)C(C)c2ccc([N+](=O)[O-])cc2)cc1 (stereo not drawn) | 6.74
44 | O=C(/C=C/c1ccc(Cl)c(Cl)c1)NCCCCCN1CCC(NC(=O)Nc2ccc(Cl)c(C(F)(F)F)c2)CC1 | 6.19
45 | O=C(NC1CCN(Cc2ccsc2)CC1)c1ccc(-c2cccc(C(F)(F)F)c2)s1 | 5.84
46 | COc1ccc2nccc([C@@H](O)CN3CCC(NC(=O)c4cccc(-c5cc(C)no5)c4)CC3)c2c1 | 6.47
47 | OCCNc1nc(Nc2ccc(Cl)cc2)nc2ccccc12 | 6.15
48 | CCn1c(Sc2ccc(C#N)c([N+](=O)[O-])c2)nnc1-c1cc(OC)cc(OC)c1 | 6.24
